Where two headings read alike, the source gives them in different places.
Columns and labels:
fungal laccase = type: biochemical, Ganoderma lucidum
Experimental: (§1) The laccase activity was measured based on a modified method of Ters et al. (2009). The laccase activity was defined as the amount of the enzyme required to oxidise 1 μmol of ABTS per minute at 25° C., and pH 4.7. The assay mixture contained: 0.1 M citrate-phosphate buffer (255 μL, pH 4.7), ABTS (5 μL, 4 mM (ABTS stock solution)), and pre-diluted laccase (5 μL) that ensured the linear range of Michaelis-Menten kinetics. The oxidation of ABTS was monitored at 420 nm (ε420=36800 M^−1cm^−1) for 2 min. in an Infinite 200 microtiter plate reader (Tecan, Salzburg, Austria). Laccase activity assays on the substrates: hydroquinone (248 nm), 2.6-dimethoxyphenol (470 nm), and guaiacol (436 nm) was done similarly with the substrate concentration as described in Table 2 using the following extinction coefficient values: 17.542 M^−1cm^−1, 35.645 M^−1cm^−1, and 6.400 M^−1cm^−1, respectively (Minussi et al. 2007). The data collection was monitored by the program Tecan i-control version 1.5.14.0 (Tecan, Salzburg, Austria).

[1] = test system: laccase from the crude extract of G. lucidum (Lac_GLCE); type: biochemical, Ganoderma lucidum
Experimental: as §1

[2] = test system: LacGL1 laccase from Ganoderma lucidum, expressed in Pichia pastoris; type: biochemical
Experimental: as §1

[3] = Laccase-cellulase catalyzed hydrolysis of pretreated biomass, glucose release; type: biochemical; conditions: with cellulase 1 or 2, pH 5.1, 50° C., 30 hour, p<0.05
Experimental: (§2) FIG. 13. A graphical comparison of glucose released over time during hydrolysis of STEX-SCB at pH 5.1 and 50° C. by each of commercial enzyme preparations Cellulase 1 (CC2) [A]; or Cellulase 2 [B], either alone, or in combination with a laccase enzyme; the tested laccases being respectively LacGL1 and GLlac1 (LacJooSS; Q9HG17) derived from G. lucidum; and laccases derived from Agaricus bisporus (Sigma 40452), Pleurotus ostreatus (Sigma 75117) and, Trametes versicolor (Sigma 51639).
(§3) The commercial fungal laccases were purchased as lyophilized protein samples from Sigma Aldrich. A solution of each of the above 5 laccases was prepared in a citric buffer containing 20% of glycerol (pH 5.1, 100 mM).
(§4) Two different commercially available cellulase enzyme preparations used in the comparative study were “Cellulase 1” and “Cellulase 2”, which were tested in combination with each of the laccases listed above.
(§5) The three different types of pretreated biomass used in the comparative study were sugarcane bagasse, barley straw and wheat straw. The source and pre-treatment of the sugarcane bagasse by steam explosion was as set out in Example 9. […] The composition of the dry and the pretreated biomass were determined according to the US National Renewable Energy Laboratory (NREL) procedures (Sluiter et al, 2010).
(§6) The laccase-cellulase catalyzed hydrolysis of the pretreated biomass samples to release glucose was performed as follows: Hydrolysis of 5% (w/v) samples of pretreated sugarcane bagasse, barley straw, and wheat straw biomass were assayed using an Enzyme/Substrate (E/S) ratio of 0.064% w/w for laccases and of 0.4% w/w for each commercial cellulase preparation in each hydrolysis reaction. The E/S dosage was based on the total protein concentration used, as determined using Pierce BCA (BiCinchoninic Acid) protein assay kit microplate procedure according to manufacturer's instruction (Thermo Fisher Scientific, Rockford, US). […]
(§7) Laccase and cellulase-mediated hydrolysis of the 3 biomass forms, measured as glucose release, are shown graphically in FIGS. 13, 14 and 15. […]

[4] = cited from earlier work; for Km: ABTS, expressed in Pichia pastoris (Sun et al., 2012)
[5] = Laccase-cellulase catalyzed hydrolysis of pretreated biomass, glucose release; type: biochemical; conditions: with cellulase 1 or 2, pH 5.1, 50° C., 30 hour, p<0.05; remark: listed apart in the source
Experimental: as §2, with “14.” for “13.”, “pre-treated barley straw” for “STEX-SCB”
as §3, §4, §5, §6, §7

[6] = as above; type: biochemical; conditions: with cellulase 1 or 2, pH 5.1, 50° C., 30 hour, p<0.05; remark: listed apart in the source
Experimental: as §2, with “15.” for “13.”, “pre-treated wheaty straw” for “STEX-SCB”
as §3, §4, §5, §6, §7

[7] = Michaelis constant (Km) of laccase for ABTS, Hanes-Wolf plot; type: biochemical; conditions: substrate ABTS

Molecule O[C@H](CS)[C@H](O)CS (racemic) [Dithiothreitol] has an Inhibition (fungal laccase; 0.5 mM) of 100%, an Inhibition ([1]; 0.5 mM) of 100% and an Inhibition ([2]; 0.5 mM) of 100%.

With O=C(O)CN(CCN(CC(=O)O)CC(=O)O)CC(=O)O [EDTA] the Inhibition (fungal laccase) was 16-30%, the Inhibition [1] was 30% and the Inhibition [2] was 16%.

In the case of [F-].[Na+] [Sodium fluoride], the Inhibition (fungal laccase; 0.1 mM) is reported as 46-56%, the Inhibition ([1]; 0.0001 mM) is reported as 23% and the Inhibition ([1]; 0.0005 mM) is reported as 24%. The Inhibition ([1]; 0.001 mM) was 28%, the Inhibition ([1]; 0.01 mM) was 38% and the Inhibition ([1]; 0.1 mM) was 56%. For the same molecule, the Inhibition ([2]; 0.0001 mM) was 8%, the Inhibition ([2]; 0.0005 mM) was 13% and the Inhibition ([2]; 0.001 mM) was 19%. The Inhibition ([2]; 0.01 mM) was 22% and the Inhibition ([2]; 0.1 mM) was 46%.

B1: GLlac1: Laccase from Ganoderma lucidum strain 7071-9 (UniProt Q9HG17, SEQ ID NO: 29), expressed in Pichia pastoris (protein, listed as Ganoderma lucidum)
chain: MVKFQSLLSCVTLLFAASAHAGIGPKADLTISNANIAPDGYTRAAVVVNGVFPGPLITGNKGDRFQLNVIDQLTNHTMLKTTSIHWHGFFQKGTNWADGPAFINQCPIASGHSFLYDFQVPDQAGTFWYHSHLSTQYCDGLRGPFVVYDPKDPLKGLYDVDNDSTVITLSDWYHVAARLGPSFPLGSDSTLINGLGRSTTNATAGLAVINVTQGKRYRFRLVSLSCDPNYTFSIDGHDMSVIEADGIATQPVTANAIQIFSAQRYSFVLTANQTIGNYWIRANPSFGNIGFTNGINSAILRYSGADPIEPTTAQQTTQNLLNEVDLHPFVAKQTPGRATQGGTDVAINMVFNFNGSNFFINNASFTPPTVPVLLQILSGAQAAQDLLPSGSVYTLPINKSIELTFPATVNAPGAPHPFHLHGHSFAVVRSAGSTEYNYNNPVWRDVVSTGTPAAGDNVTIRFQTDNPGPWFLHCHIDFHLEAGFAVVFAEDTADTSLANHVPQAWSDLCPTYDALSADDH
For B1, the “glucose release compared to the other tested laccases” value [3] is listed as “significantly enhanced”, the Km [4] is listed as 995 µM and the Km ([4]; listed as GILCC1) is listed as 996 µM. The pH optimum ([4]; literature) was 2.6, the “glucose release compared to the other tested laccases” value [5] was “significantly enhanced” and the “glucose release compared to the other tested laccases” value [6] was “significantly enhanced”.

B2: Ganoderma lucidum CBS229.93 laccase: Native laccase secreted by Ganoderma lucidum CBS229.93, about 62.5 kDa (protein, listed as Ganoderma lucidum)
chain: MAKFQSLLSCVTLLFAASAYAGIGPKTDLTISNADVAPDGYTRAAVVVNGVFPAPLITGNKGDRFQLNVIDQMTNHTMLKSTSIHWHGFFQKGTNWADGPAFINQCPISSGHSFLYDFQVPDQAGTFWYHSHLSTQYCDGLRGPFVVYDPKDPLKKLYDIDDDSTVITLTDWYHVAARLGPRFPLGSDSTLINGLGRSTTNVTADLAVINVTQGKRYRFRLVSLSCDPNYTFSIDDHNMTVIEADGIETQPVTVNAIQIFSAQRYSFVLTANQTIDNYWIRANPNFGNVGFTDGINSAILRYAGADPVEPTTSQQTTQNLLNEVDLHPFVPKRTPGQPTQGGVDTAINMVFNFNGSNFFINNASFVPPTVPVLLQILSGAQAAQDLLPSGSVYTLPVNKSIELTFPATANAPGAPHPFHLHGHAFAVVRSAGSTVYNYDNPVWRDVVSTGTPAAGDNVTIRFQTDNPGPWFLHCHIDFHLEAGFAVVFAEDPTDTSLANPVPKAWSDLCPTYDALSVDDQ
Work on B2 yielded a Km ([7]; pH 5) of 107 µM and a Km ([7]; laccase expressed in Ganoderma lucidum CBS229.93 (native)) of 107 µM.

Source: patent publication US9725702B2, “Laccase from ganoderma lucidum capable of enhancing enzymatic degradation of lignocellulolytic biomass” (DANMARKS TEKNISKE UNIVERSITET, priority 2012, dated 2017)
